According to patent publication US20120088667A1, “SAFENING AGENT” (priority 2009, published 2012):
Read-outs that look alike come from different tables or passages of the source.

Assays:
[1] = test system: Maize cv Sundance (i.e. not Roundup Ready); conditions: no glyphosate; for Vigour (0-9) + 14 Days / Vigour (0-9) + 28 Days / Vigour (0-9) + 41 Days: scale 0-9, 0=least vigour, 9=most vigour
NAVY BEAN cv Mogex [2] = assay: Root nodulation and safening, navy bean, compost of normal pH (Example 7.4); conditions: compost of normal pH (6.5); for Nodules Per Plant (V1): V1, +28 days after spraying, no inoculum; for Nodulation Score (0-9) (V1) / Phyto-Toxicity Score (0-9) (V1) / Vigour Score (0-9) (V1): V1, score 0-9
Source text: (§1) The safener/safening system and the fertiliser were applied to the crops either simultaneously or sequentially.
(§2) Co=100% Cobalt Sulphate (20 g per litre and per hectare). FF1=20 g per litre Cobalt Sulphate (as per Co above) plus “Miracle-Gro” at xl recommended rate (applied at 15 g per 2.5 sq metres). Miracle-Gro contains: 24% N, 4% P, 13% K, plus 0.02% B, 0.03% Cu, 0.19% Fe, 0.05% Mn, 0.001% Mo and 0.03% Zn. FF2=20 g per litre Cobalt Sulphate plus Miracle-Gro at ×2 recommended rate. SAF: at least one from class (f) each at <3 g/l, plus at least one from class (c).
NAVY BEAN cv Mogex. Scored/Counted+28 Days after Spraying. Dates as per Example 7.3 Above, but sown in compost of normal pH (6.5). Each treatment represents the mean value from 12 plants, within four replicates. No inoculum applied.

Glycine max (Soybean) = assay: Root nodulation and safening, soybean, compost of normal pH (Example 7.2); conditions: compost of normal pH (6.5); for Nodules Per Plant (V1): V1, mean of 12 plants; for Nodulation Score (0-9) (V1) / Phyto-Toxicity Score (0-9) (V1) / Vigour Score (0-9) (V1): V1, score 0-9
Source text: as §1, §2
Dates as per Example 7.1 above, but sown in compost of normal pH (6.5). Each treatment represents the mean values for 12 plants, within four replicates. Sowing density 110 kg/ha. Standard inoculant applied at sowing.

Winter Barley cv Saffron = conditions: for Vigour (0-9) (9 = Most Vigour) + 14 days: score 0-9, 9 = Most Vigour; for Vigour (0-9) + 28 Days: score 0-9, +28 days; for Phytotoxicity (0-9) (0 = Dead) + 14 Days / Phytotoxicity (0-9) (0 = Dead) + 28 Days: score 0-9, 0 = Dead
Source text: (§3) The safening system and the fungicide were applied to the crops either simultaneously or sequentially, either as foliar applications or as a seed treatment.
(§4) Winter Barley: cv Saffron, sown 27 May 2008, at four/five seeds per 9 cm pot, sown in standard multi-purpose compost of pH 6.5. Date of spraying: 23 July; Dates of measurement/scoring: 30 July, 14 August, 22 August. Sprayed: mid-tillering phase (GS23). Winter Wheat: cv Limerick, sown 4 Jun. 2008, at four/five seeds per 9 cm pot, sown in standard multi-purpose compost of pH 6.5. Date of spraying: 23 July; Dates of measurement/scoring: 30 July, 14 August, 23 August. Sprayed: mid-tillering phase (GS23). Maize: cv Sundance, sown 25 May 2008, at 10 seeds per 25 cm pot, in John Innes No 1 compost. Date of measurement/assessment: 15 June. Seed treatment trial. Randomised block, mean of five replicates.
(§5) SAF: at least one from class (f) each at <3 g/l, plus at least one from class (c).

Winter Wheat cv Limerick [3] = test system: Winter Wheat cv Limerick
Source text: as §3, §4, §5

NAVY BEAN cv Mogex [4] = assay: Root nodulation and safening, navy bean, compost of low pH (Example 7.3); conditions: compost of low pH (5.0-5.5); for Nodules Per Plant (V1): V1, +28 days after spraying, no inoculum; for Nodulation Score (0-9) (V1) / Phyto-Toxicity Score (0-9) (V1) / Vigour Score (0-9) (V1): V1, score 0-9
Source text: as §1, §2
NAVY BEAN cv Mogex. Scored/Counted+28 Days after Spraying. Sown in Compost of low pH (5.0-5.5) on 29 Apr. 2008. Spray Date (VC)=27 May, V1 Date=16 June. Scored/Measured on 11 July. Each treatment represents the mean value of 12 plants, within four replicates. No inoculum applied.

Winter Wheat cv Limerick [5] = assay: Safening of fertilisers, pot trial: phytotoxicity and vigour scores, winter wheat; assay type: in vivo; conditions: for Vigour (0-9) (9 = Most Vigour) + 14 days / Vigour (0-9) + 28 Days: score 0-9
Source text: The safening system and the fertilizer were applied either simultaneously or sequentially.
Sprayed: mid-tillering phase (GS23). Winter Wheat: cv Limerick, sown 4 Jun. […] Sprayed: mid-tillering phase (GS23). Lettuce: cv Set, sown 10 Jul. 2008, at one seed per pot, in John Innes No 1 compost. Date of spraying: 30 July; Dates of measurement: 7 August, 14 August, 28 August. Sprayed: 2 true leaf stage.

[6] = scale 0-9, 0=dead, 9=least phytotoxicity
[7] = Table 2.1, fungicide Prochloraz
[8] = Table 2.2, fungicide Flutriafol
[9] = Table 2.3, fungicides Fenpropidin and Flutriafol
[10] = Table 2.4, winter wheat, fungicide Prochloraz, score 0-9, 9 = Most Vigour
[11] = Table 2.5, winter wheat, fungicide Flutriafol, score 0-9, 9 = Most Vigour
[12] = score 0-9, 9 = most vigour, foliar, fungicides Fenpropidin and Flutriafol, Table 2.6
[13] = Table 2.4, winter wheat, fungicide Prochloraz, score 0-9, 0 = Dead
[14] = Table 2.5, winter wheat, fungicide Flutriafol, score 0-9, 0 = Dead
[15] = score 0-9, 0 = dead, foliar, fungicides Fenpropidin and Flutriafol, Table 2.6

CC(=O)Nc1ccc(O)cc1 [AC, N-(4-hydroxypheyl)acetamide, reference compound]
Phytotoxicity (0-9) (0 = Dead) + 41 days [1, 6]: 8.0
Vigour (0-9) + 14 Days [1]: 8.0
Vigour (0-9) + 28 Days ([1]; 28 days): 8.0
Vigour (0-9) + 41 Days [1]: 8.0
Nodules Per Plant (V1) (NAVY BEAN cv Mogex [2]): 29.5
Nodulation Score (0-9) (V1) (NAVY BEAN cv Mogex [2]): 4.8
Phyto-Toxicity Score (0-9) (V1) (NAVY BEAN cv Mogex [2]): 7.0
Vigour Score (0-9) (V1) (NAVY BEAN cv Mogex [2]): 7.0
Nodules Per Plant (VC) (NAVY BEAN cv Mogex [2]): 32.1
Nod Score (0-9) (VC) (NAVY BEAN cv Mogex [2]): 5.0
Nodules Per Plant (V1) (Glycine max (Soybean)): 29.9
Nodulation Score (0-9) (V1) (Glycine max (Soybean)): 5.5
Phyto-Toxicity Score (0-9) (V1) (Glycine max (Soybean)): 8.0
Vigour Score (0-9) (V1) (Glycine max (Soybean)): 6.5
Nodules Per Plant (VC) (Glycine max (Soybean)): 32.0
Nod Score (0-9) (VC) (Glycine max (Soybean)): 5.7
Vigour (0-9) (9 = Most Vigour) + 14 days (Winter Barley cv Saffron; [7]): 7.0
Vigour (0-9) + 28 Days (Winter Barley cv Saffron; [7]): 8.0
Vigour (0-9) (9 = Most Vigour) + 14 days (Winter Barley cv Saffron; [8]): 7.0
Vigour (0-9) + 28 Days (Winter Barley cv Saffron; [8]): 8.0
Vigour (0-9) (9 = Most Vigour) + 14 days (Winter Barley cv Saffron; [9]): 7.0
Vigour (0-9) + 28 Days (Winter Barley cv Saffron; [9]): 8.0
Vigour (0-9) (9 = Most Vigour) + 14 days (Winter Wheat cv Limerick [3]; [10]): 7.0
Vigour (0-9) (9 = Most Vigour) + 14 days (Winter Wheat cv Limerick [3]; [11]): 7.0
Vigour (0-9) (9 = Most Vigour) + 14 days (Winter Wheat cv Limerick [3]; [12]): 7.0
Nodules Per Plant (V1) (NAVY BEAN cv Mogex [4]): 19.3
Nodulation Score (0-9) (V1) (NAVY BEAN cv Mogex [4]): 3.1
Phyto-Toxicity Score (0-9) (V1) (NAVY BEAN cv Mogex [4]): 5.6
Vigour Score (0-9) (V1) (NAVY BEAN cv Mogex [4]): 6.0
Nodules Per Plant (VC) (NAVY BEAN cv Mogex [4]): 22.1
Nod Score (0-9) (VC) (NAVY BEAN cv Mogex [4]): 3.5
Phytotoxicity (0-9) (0 = Dead) + 14 Days (Winter Wheat cv Limerick [5]; in vivo): 7.0

Nc1ccccc1C(=O)O [AN, anthranilic acid]
Phytotoxicity (0-9) (0 = Dead) + 14 Days ([1]; scale 0-9, 0=dead, 9=least phytotoxicity, 14 days after spraying): 8.0
Phytotoxicity (0-9) (0 = Dead) + 28 Days ([1]; scale 0-9, 0=dead, 9=least phytotoxicity, 28 days): 8.0
Phytotoxicity (0-9) (0 = Dead) + 41 days [1, 6]: 8.0
Vigour (0-9) + 14 Days [1]: 8.0
Vigour (0-9) + 28 Days ([1]; 28 days): 8.0
Vigour (0-9) + 41 Days [1]: 8.0
Nodules Per Plant (V1) (NAVY BEAN cv Mogex [2]): 32.2
Nodulation Score (0-9) (V1) (NAVY BEAN cv Mogex [2]): 5.0
Phyto-Toxicity Score (0-9) (V1) (NAVY BEAN cv Mogex [2]): 7.0
Vigour Score (0-9) (V1) (NAVY BEAN cv Mogex [2]): 7.2
Nodules Per Plant (VC) (NAVY BEAN cv Mogex [2]): 33.2
Nod Score (0-9) (VC) (NAVY BEAN cv Mogex [2]): 5.1
Nodules Per Plant (V1) (Glycine max (Soybean)): 34.2
Nodulation Score (0-9) (V1) (Glycine max (Soybean)): 5.9
Phyto-Toxicity Score (0-9) (V1) (Glycine max (Soybean)): 8.0
Vigour Score (0-9) (V1) (Glycine max (Soybean)): 6.7
Nodules Per Plant (VC) (Glycine max (Soybean)): 33.3
Nod Score (0-9) (VC) (Glycine max (Soybean)): 5.8
Phytotoxicity (0-9) (0 = Dead) + 14 Days (Winter Barley cv Saffron; [7]): 7.5
Phytotoxicity (0-9) (0 = Dead) + 28 Days (Winter Barley cv Saffron; [7]): 8.0
Vigour (0-9) (9 = Most Vigour) + 14 days (Winter Barley cv Saffron; [7]): 7.0
Vigour (0-9) + 28 Days (Winter Barley cv Saffron; [7]): 8.0
Phytotoxicity (0-9) (0 = Dead) + 14 Days (Winter Barley cv Saffron; [8]): 7.5
Phytotoxicity (0-9) (0 = Dead) + 28 Days (Winter Barley cv Saffron; [8]): 8.0
Vigour (0-9) (9 = Most Vigour) + 14 days (Winter Barley cv Saffron; [8]): 7.0
Vigour (0-9) + 28 Days (Winter Barley cv Saffron; [8]): 8.0
Phytotoxicity (0-9) (0 = Dead) + 14 Days (Winter Barley cv Saffron; [9]): 7.5
Phytotoxicity (0-9) (0 = Dead) + 28 Days (Winter Barley cv Saffron; [9]): 8.0
Vigour (0-9) (9 = Most Vigour) + 14 days (Winter Barley cv Saffron; [9]): 7.0
Vigour (0-9) + 28 Days (Winter Barley cv Saffron; [9]): 8.0
Phytotoxicity (0-9) (0 = Dead) + 14 Days (Winter Wheat cv Limerick [3]; [13]): 7.5
Phytotoxicity (0-9) (0 = Dead) + 28 Days (Winter Wheat cv Limerick [3]; [13]): 8.0
Vigour (0-9) (9 = Most Vigour) + 14 days (Winter Wheat cv Limerick [3]; [10]): 7.0
Vigour (0-9) + 28 Days (Winter Wheat cv Limerick [3]; Table 2.4, winter wheat, fungicide Prochloraz, score 0-9): 8.0
Phytotoxicity (0-9) (0 = Dead) + 14 Days (Winter Wheat cv Limerick [3]; [14]): 7.5
Phytotoxicity (0-9) (0 = Dead) + 28 Days (Winter Wheat cv Limerick [3]; [14]): 8.0
Vigour (0-9) (9 = Most Vigour) + 14 days (Winter Wheat cv Limerick [3]; [11]): 7.0
Vigour (0-9) + 28 Days (Winter Wheat cv Limerick [3]; Table 2.5, winter wheat, fungicide Flutriafol, score 0-9): 8.0
Phytotoxicity (0-9) (0 = Dead) + 14 Days (Winter Wheat cv Limerick [3]; [15]): 7.5
Phytotoxicity (0-9) (0 = Dead) + 28 Days (Winter Wheat cv Limerick [3]; [15]): 8.0
Vigour (0-9) (9 = Most Vigour) + 14 days (Winter Wheat cv Limerick [3]; [12]): 7.0
Vigour (0-9) + 28 Days (Winter Wheat cv Limerick [3]; [12]): 8.0
Nodules Per Plant (V1) (NAVY BEAN cv Mogex [4]): 20.9
Nodulation Score (0-9) (V1) (NAVY BEAN cv Mogex [4]): 3.3
Phyto-Toxicity Score (0-9) (V1) (NAVY BEAN cv Mogex [4]): 6.0
Vigour Score (0-9) (V1) (NAVY BEAN cv Mogex [4]): 6.0
Nodules Per Plant (VC) (NAVY BEAN cv Mogex [4]): 23.4
Nod Score (0-9) (VC) (NAVY BEAN cv Mogex [4]): 3.8
Phytotoxicity (0-9) (0 = Dead) + 14 Days (Winter Wheat cv Limerick [5]; Table 1.4, winter wheat, phosphite fertiliser (KP), score 0-9, 0 = dead, +14 days): 7.5
Phytotoxicity (0-9) (0 = Dead) + 28 Days (Winter Wheat cv Limerick [5]; Table 1.4, winter wheat, phosphite fertiliser (KP), score 0-9, 0 = dead): 8.0
Vigour (0-9) (9 = Most Vigour) + 14 days (Winter Wheat cv Limerick [5]; Table 1.4, winter wheat, phosphite fertiliser (KP), +14 days): 8.0
Vigour (0-9) + 28 Days (Winter Wheat cv Limerick [5]; Table 1.4, winter wheat, phosphite fertiliser (KP)): 8.5
Phytotoxicity (0-9) (0 = Dead) + 28 Days (Winter Wheat cv Limerick [5]; Table 1.5, winter wheat, KP/ATS, score 0-9, 0 = dead): 8.0
Vigour (0-9) (9 = Most Vigour) + 14 days (Winter Wheat cv Limerick [5]; Table 1.5, winter wheat, KP/ATS, +14 days): 8.0
Vigour (0-9) + 28 Days (Winter Wheat cv Limerick [5]; Table 1.5, winter wheat, KP/ATS): 8.5
Phytotoxicity (0-9) (0 = Dead) + 14 Days (Winter Wheat cv Limerick [5]; Table 1.5, winter wheat, thiosulphate and phosphite fertilisers (KP/ATS), score 0-9, 0 = dead, +14 days): 7.5
Phytotoxicity (0-9) (0 = Dead) + 14 Days (Winter Wheat cv Limerick [5]; Table 1.6, winter wheat, general NPK fertilisers (GEN + KP, GENEX), score 0-9, 0 = dead, +14 days): 7.5
Phytotoxicity (0-9) (0 = Dead) + 28 Days (Winter Wheat cv Limerick [5]; Table 1.6, winter wheat, general fertilisers, score 0-9, 0 = dead): 8.0
Vigour (0-9) (9 = Most Vigour) + 14 days (Winter Wheat cv Limerick [5]; Table 1.6, winter wheat, general fertilisers, +14 days): 8.0
Vigour (0-9) + 28 Days (Winter Wheat cv Limerick [5]; Table 1.6, winter wheat, general fertilisers): 8.5
